Results on 13 compounds are retold here after patent US20130317045A1, “THIENOPYRIDINE AND THIENOPYRIMIDINE COMPOUNDS AND METHODS OF USE THEREOF” (AMBIT BIOSCIENCES CORPORATION, priority 2010, published 2013).

The subject of experiment [1] is distinct kinases tested excluding mutant variants, typically 359 or 386 kinases. The experiment can be described thus: Kinase selectivity score from competition binding panel. The note with it: compound at 10 μM; fraction of kinases with inhibition of 90% or greater. As for the experimental part: (§1) Competition binding assays used herein were developed, validated and performed as described in Fabian et al., Nature Biotechnology 2005, 23,329-336. Kinases were produced as fusions to T7 phage (See, Fabian et al. or WO04/015142) or alternatively, the kinases were expressed in HEK-293 cells and subsequently tagged with DNA for PCR detection (See, WO08/005310). For the binding assays, streptavidin-coated magnetic beads were treated with biotinylated affinity ligands for 30 min at rt to generate affinity resins. The liganded beads were blocked with excess biotin and washed with blocking buffer (SeaBlock (Pierce), 1% BSA, 0.05% Tween 20, 1 mM DTT) to remove unbound ligand and to reduce non-specific binding. Binding reactions were assembled by combining kinase, liganded affinity beads, and test compounds in 1× binding buffer (20% SeaBlock, 0.17×PBS, 0.05% Tween 20, 6 mM DTT). Test compounds were prepared as 100× stocks in DMSO and rapidly diluted into the aqueous environment. DMSO was added to control assays lacking a test compound. Primary screen interactions were performed in polypropylene 384-well plates in a final volume of 34 μL, while Kd determinations were performed in polystyrene 96-well plates in a final volume of 135 μL. The assay plates were incubated at room temperature with shaking for 1 hour, long enough for binding reactions to reach equilibrium, and the affinity beads were washed extensively with wash buffer (1× PBS, 0.05% Tween 20) to remove unbound protein. The beads were then resuspended in elution buffer (1× PBS, 0.05% Tween 20, 2 μM non-biotinylated affinity ligand) and incubated at room temperature with shaking for 30 min. The kinase concentration in the eluates was measured by quantitative PCR. Each kinase was tested individually against each compound. Kds were determined using eleven serial threefold dilutions. A selectivity score, which is a quantitative measure of selectivity of a compound against a panel of enzymes, may be calculated for a compound by dividing the number of enzymes for which a compound meets a set criteria, (for example, a binding constant of 100 nM or less), by the total number of enzymes tested.

In experiment [2] the target is T1, JAK3 (Homo sapiens, UniProt P52333).
T1 construct: made in house
T1 sequence (P52333 1-1124): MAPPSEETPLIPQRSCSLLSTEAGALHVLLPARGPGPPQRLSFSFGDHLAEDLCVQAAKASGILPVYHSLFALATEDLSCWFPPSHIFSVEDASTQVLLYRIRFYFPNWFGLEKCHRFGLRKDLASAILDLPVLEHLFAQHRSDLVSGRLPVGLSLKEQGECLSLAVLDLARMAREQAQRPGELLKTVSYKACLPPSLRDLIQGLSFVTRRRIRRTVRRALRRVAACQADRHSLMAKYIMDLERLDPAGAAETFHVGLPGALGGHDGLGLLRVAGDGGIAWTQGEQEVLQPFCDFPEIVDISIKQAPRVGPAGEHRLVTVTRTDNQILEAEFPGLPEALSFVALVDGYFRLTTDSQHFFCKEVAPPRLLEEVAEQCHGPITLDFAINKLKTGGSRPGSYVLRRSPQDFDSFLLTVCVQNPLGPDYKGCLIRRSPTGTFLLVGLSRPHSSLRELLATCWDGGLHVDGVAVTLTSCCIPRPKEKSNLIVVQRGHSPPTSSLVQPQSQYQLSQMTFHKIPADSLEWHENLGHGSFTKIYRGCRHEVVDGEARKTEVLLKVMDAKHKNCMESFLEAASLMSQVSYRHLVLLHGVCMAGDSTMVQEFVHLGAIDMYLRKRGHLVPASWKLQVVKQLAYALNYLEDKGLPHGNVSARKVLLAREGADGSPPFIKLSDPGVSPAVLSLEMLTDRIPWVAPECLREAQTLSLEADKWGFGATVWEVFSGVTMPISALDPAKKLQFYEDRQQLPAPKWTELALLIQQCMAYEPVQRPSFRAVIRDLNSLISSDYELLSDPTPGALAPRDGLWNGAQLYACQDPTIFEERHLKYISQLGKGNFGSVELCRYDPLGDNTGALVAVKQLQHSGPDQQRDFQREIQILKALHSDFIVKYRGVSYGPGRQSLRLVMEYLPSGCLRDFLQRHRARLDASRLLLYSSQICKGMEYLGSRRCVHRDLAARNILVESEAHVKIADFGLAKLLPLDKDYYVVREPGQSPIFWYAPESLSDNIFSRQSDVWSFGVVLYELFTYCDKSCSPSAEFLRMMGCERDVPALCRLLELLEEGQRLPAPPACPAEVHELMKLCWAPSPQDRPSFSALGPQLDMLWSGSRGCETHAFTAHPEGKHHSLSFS
Kind of experiment: Competition binding assay, JAK3.
Description: (§2) Competition Binding Assay to Determine Binding Constants (Kd) of the Compounds Against JAK Kinases
as §1

Experiment [3] has as its system GM-CSFR/JAK2/STAT5 pathway in CSTF-1 cells. The experiment can be described thus: CSTF-1 cell-based reporter assay (beta-lactamase, GM-CSF stimulated). The note with it: Homo sapiens; GM-CSF at 2 ng/mL, 4 hours; read-out: Cell Assay: CS TF-1 reporter assay IC50. Further details: species or system human. The method, then:
CSTF-1 Cell-Based Reporter Assay
CSTF-1 cells are derived from the human erythroleukemia cell line that is growth dependent on GM-CSF and has an intact GM-CSFR/JAK2/STAT5 pathway. The cell line contains stably integrated beta-lactamase reporter gene under the control of the […] (irf 1) response element recognized by the activated transcription factor STATS. csTF-1 cells (Invitrogen K1219) were washed with assay media (97% OPTIMEM/ 0.5% dialyzed FBS/0.1 mM NEAA/1 mM Na pyr/P/S) and seeded in the same media at 5×10^5 cell/mL in T150 flask. After 16 hour incubation, cells were seeded at 2×10^5 cell/well in 50 μl volume, into Costar, clear bottom, 96-well assay plates. Serial dilutions of compounds were added to the plates with final DMSO concentration at 0.5% and GM-CSF at 2 ng/mL and the plates were then incubated at […] and 5% CO2 for 4 hours. The plates were brought to room temperature before adding Substrate Mixture according to manufacturer's protocol (Invitrogen, Catalog #K1085). The assay plates containing the substrate mixture were incubated in the dark at room temperature for 2 hours. Blue and green fluorescence was measured with excitation at 409 nm and emission at 460 nm (for blue) and excitation at 409 nm and emission at 530 nm (for green) using Spectra Max Gemini EM.
On the technique in general: Reporter assays use an easily measured gene product as a stand-in for the process of interest.

For experiment [4], the target named is T2, TYK2 (Homo sapiens, UniProt P29597).
T2 construct: made in house
Kind of experiment: Competition binding assay, TYK2.
Description: as §2, §1

The target of experiment [5] is T3, JAK2 (Homo sapiens, UniProt O60674).
T3 construct: made in house
The experiment can be described thus: Competition binding assay, JAK2.
Description: as §2, §1

Molecules are shown by their SMILES.

In general, Kd refers to the constant that tells how readily two partners part at equilibrium. A low value points to tighter binding. What is called IC50 is the concentration at which inhibition is half-maximal.

T2 sequence (P29597 whole entry): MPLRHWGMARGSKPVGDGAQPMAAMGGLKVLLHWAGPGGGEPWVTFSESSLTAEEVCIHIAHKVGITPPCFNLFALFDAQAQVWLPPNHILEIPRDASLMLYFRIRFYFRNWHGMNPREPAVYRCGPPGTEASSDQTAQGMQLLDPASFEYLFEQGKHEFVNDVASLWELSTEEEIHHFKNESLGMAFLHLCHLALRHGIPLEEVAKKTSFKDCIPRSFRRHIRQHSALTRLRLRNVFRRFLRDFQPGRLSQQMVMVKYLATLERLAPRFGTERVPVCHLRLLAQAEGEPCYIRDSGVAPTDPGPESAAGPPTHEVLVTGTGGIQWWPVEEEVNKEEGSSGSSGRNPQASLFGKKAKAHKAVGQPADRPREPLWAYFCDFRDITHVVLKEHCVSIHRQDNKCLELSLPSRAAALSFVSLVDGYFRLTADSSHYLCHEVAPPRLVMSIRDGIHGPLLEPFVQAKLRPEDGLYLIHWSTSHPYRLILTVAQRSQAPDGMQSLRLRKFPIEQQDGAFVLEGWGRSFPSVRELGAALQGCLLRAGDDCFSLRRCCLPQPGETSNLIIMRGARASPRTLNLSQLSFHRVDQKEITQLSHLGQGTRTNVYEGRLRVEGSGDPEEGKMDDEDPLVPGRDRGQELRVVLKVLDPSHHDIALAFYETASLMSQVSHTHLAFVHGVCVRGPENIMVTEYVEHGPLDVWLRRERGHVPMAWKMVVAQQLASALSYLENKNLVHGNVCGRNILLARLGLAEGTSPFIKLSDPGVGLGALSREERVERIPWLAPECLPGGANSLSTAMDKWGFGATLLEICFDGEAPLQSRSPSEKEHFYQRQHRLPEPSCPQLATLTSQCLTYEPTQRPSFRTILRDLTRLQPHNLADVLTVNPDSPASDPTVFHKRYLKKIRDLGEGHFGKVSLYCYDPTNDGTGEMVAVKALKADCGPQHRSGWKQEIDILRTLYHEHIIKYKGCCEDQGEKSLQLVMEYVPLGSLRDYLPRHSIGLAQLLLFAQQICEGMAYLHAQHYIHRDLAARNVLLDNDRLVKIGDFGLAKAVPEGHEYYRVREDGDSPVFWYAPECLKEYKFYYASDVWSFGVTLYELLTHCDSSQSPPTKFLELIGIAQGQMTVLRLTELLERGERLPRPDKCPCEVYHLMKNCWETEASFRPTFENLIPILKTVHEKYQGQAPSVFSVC
T3 sequence (O60674 whole entry): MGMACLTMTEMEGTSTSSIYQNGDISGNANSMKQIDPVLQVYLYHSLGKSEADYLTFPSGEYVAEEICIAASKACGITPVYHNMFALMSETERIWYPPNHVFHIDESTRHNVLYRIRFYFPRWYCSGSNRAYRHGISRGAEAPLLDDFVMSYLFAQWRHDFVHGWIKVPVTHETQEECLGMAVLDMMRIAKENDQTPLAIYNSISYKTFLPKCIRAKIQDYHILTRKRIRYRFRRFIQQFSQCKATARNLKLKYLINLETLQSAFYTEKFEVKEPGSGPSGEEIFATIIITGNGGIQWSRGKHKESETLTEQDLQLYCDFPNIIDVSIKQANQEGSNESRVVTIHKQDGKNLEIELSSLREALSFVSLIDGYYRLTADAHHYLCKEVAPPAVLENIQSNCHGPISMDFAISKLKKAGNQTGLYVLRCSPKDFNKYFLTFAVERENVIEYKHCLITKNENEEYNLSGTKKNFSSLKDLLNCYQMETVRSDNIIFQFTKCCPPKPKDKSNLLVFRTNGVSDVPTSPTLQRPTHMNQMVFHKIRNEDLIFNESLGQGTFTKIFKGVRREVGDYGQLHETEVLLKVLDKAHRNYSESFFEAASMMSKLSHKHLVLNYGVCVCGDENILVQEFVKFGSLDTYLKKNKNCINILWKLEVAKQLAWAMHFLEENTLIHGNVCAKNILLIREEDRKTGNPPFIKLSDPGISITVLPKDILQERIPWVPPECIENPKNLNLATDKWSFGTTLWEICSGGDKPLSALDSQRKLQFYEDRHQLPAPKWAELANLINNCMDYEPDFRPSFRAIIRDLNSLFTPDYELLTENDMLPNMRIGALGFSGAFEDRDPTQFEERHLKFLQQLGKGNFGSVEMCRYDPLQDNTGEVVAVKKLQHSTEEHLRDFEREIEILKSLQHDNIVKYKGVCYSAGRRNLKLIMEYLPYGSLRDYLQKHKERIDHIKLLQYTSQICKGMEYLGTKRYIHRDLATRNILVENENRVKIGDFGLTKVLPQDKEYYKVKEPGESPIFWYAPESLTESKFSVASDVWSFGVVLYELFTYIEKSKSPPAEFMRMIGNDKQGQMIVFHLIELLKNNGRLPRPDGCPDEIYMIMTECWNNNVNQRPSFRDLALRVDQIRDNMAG

As for `Cc1cc(Nc2nc(C(O)c3ccc(F)cc3)nc3sccc23)n[nH]1` (racemic) [Example 4, (R,S)-(4-fluorophenyl)(4-(5-methyl-1H-pyrazol-3-ylamino)thieno[2,3-d]pyrimidin-2-yl)methanol], in experiment [1], the “S-Score: S(10) at 10 μM” value is recorded as “B (0.3 < B ≦ 0.4)”. Further, the Kd in experiment [2] was not above 10 nM; in experiment [4], not above 10 nM; in experiment [5] it was not above 1 nM. Moreover, the IC50 in experiment [3] is not above 100 nM.
For `Cc1cc(Nc2nc(C(O)c3ccc(F)cc3)nc3ccsc23)n[nH]1` (racemic) [Example 6, (R,S)-4-Fluorophenyl)(4-(5-methyl-1H-pyrazol-3-ylamino)thieno[3,2-d]pyrimidin-2-yl)methanol], the “S-Score: S(10) at 10 μM” value in experiment [1] is “A (A ≦ 0.3)”. For the same compound, the Kd in experiment [2] is not above 10 nM; in experiment [4] it was not above 10 nM; in experiment [5], not above 1 nM. For the same compound, the IC50 in experiment [3] is not above 100 nM.
Regarding `COC(c1ccc(F)cc1)c1nc(Nc2cc(C)[nH]n2)c2ccsc2n1` (racemic) [Example 9, (R,S)-2-((4-fluorophenyl)(methoxy)methyl)-N-(5-methyl-1H-pyrazol-3-yl)thieno[2,3-d]pyrimidin-4-amine], the “S-Score: S(10) at 10 μM” value in experiment [1] is listed as “A (A ≦ 0.3)”. The Kd in experiment [2] was 10 to 100 nM; in experiment [4] it was not above 10 nM; in experiment [5] it was not above 1 nM. Further, the IC50 in experiment [3] was in the range of 100 to 500 nM.
For `Cc1cc(Nc2nc(C(O)c3ccc(F)cc3)nc3scc(C)c23)n[nH]1` (racemic) [Example 11, (R,S)-(4-Fluorophenyl)(5-methyl-4-(5-methyl-1H-pyrazol-3-ylamino)thieno[2,3-d]pyrimidin-2-yl)methanol], the “S-Score: S(10) at 10 μM” value in experiment [1] is given as “A (A ≦ 0.3)”. Besides, the Kd in experiment [2] is more than 100 nM; in experiment [4], more than 100 nM; in experiment [5], more than 10 nM. Moreover, in experiment [3], the IC50 is more than 500 nM.
Consider `Cc1csc2nc(C(O)c3ccc(F)cc3)nc(Nc3cc[nH]n3)c12` (racemic) [Example 13, (R,S)-(4-(1H-pyrazol-3-ylamino)-5-methylthieno[2,3-d]pyrimidin-2-yl)(4-fluorophenyl)methanol], for which the “S-Score: S(10) at 10 μM” value in experiment [1] is reported as “A (A ≦ 0.3)”. For the same compound, the Kd is more than 100 nM in experiment [2], more than 100 nM in experiment [4] and more than 10 nM in experiment [5]. Also, in experiment [3], the IC50 is more than 500 nM.
As for `Cc1cc(Nc2nc(C(O)c3ccc(F)cc3)nc3sc(C)cc23)n[nH]1` (racemic) [Example 16, (R,S)-(4-fluorophenyl)(6-methyl-4-(5-methyl-1H-pyrazol-3-ylamino)thieno[2,3-d]pyrimidin-2-yl)methanol], in experiment [1], the “S-Score: S(10) at 10 μM” value is “C (0.4 < C ≦ 0.5)”. In addition, the Kd in experiment [2] was 10 to 100 nM; in experiment [4] it was not above 10 nM; in experiment [5], not above 1 nM. Also, the IC50 in experiment [3] was not above 100 nM.
For `Cc1cc2c(Nc3cc[nH]n3)nc(C(O)c3ccc(F)cc3)nc2s1` (racemic) [Example 17, (R,S)-(4-(1H-pyrazol-3-ylamino)-6-methylthieno[2,3-d]pyrimidin-2-yl)(4-fluorophenyl)methanol], the “S-Score: S(10) at 10 μM” value in experiment [1] was “A (A ≦ 0.3)”. Also, the Kd in experiment [2] is 10 to 100 nM; in experiment [4], more than 100 nM; in experiment [5], not above 1 nM. The IC50 in experiment [3] fell in the range of 100 to 500 nM.
Turning to `Cc1cc(Nc2nc(C(C)(O)c3ccc(F)cc3)nc3ccsc23)n[nH]1` (racemic) [Example 18, (R,S)-1-(4-fluorophenyl)-1-(4-(5-methyl-1H-pyrazol-3-ylamino)thieno[3,2-d]pyrimidin-2-yl)ethanol], the results for the Kd in experiment [2], in experiment [4] and in experiment [5] were not above 10 nM, not above 10 nM and not above 1 nM, respectively. The IC50 in experiment [3] was not above 100 nM.
For `Cc1cc(Nc2nc(C(O)c3ccc(F)cc3)nc3cc(C)sc23)n[nH]1` (racemic) [Example 21, (R,S)-(4-fluorophenyl)(6-methyl-4-(5-methyl-1H-pyrazol-3-ylamino)thieno[3,2-d]pyrimidin-2-yl)methanol], the “S-Score: S(10) at 10 μM” value in experiment [1] is “B (0.3 < B ≦ 0.4)”. For the same compound, the figures for the Kd in experiment [2], in experiment [4] and in experiment [5] were not above 10 nM, not above 10 nM and not above 1 nM, respectively. The IC50 in experiment [3] was not above 100 nM.
For `CC(C)(C)c1cc2nc(C(O)c3ccc(F)cc3)nc(Nc3cc[nH]n3)c2s1` (racemic) [Example 29, (R,S)-(4-(1H-pyrazol-3-ylamino)-6-tert-butylthieno[3,2-d]pyrimidin-2-yl)(4-fluorophenyl)methanol], the “S-Score: S(10) at 10 μM” value in experiment [1] was “A (A ≦ 0.3)”. Further, the Kd in experiment [2] was more than 100 nM; in experiment [4] it was more than 100 nM; in experiment [5] it was 1 to 10 nM. For the same compound, the IC50 in experiment [3] lay in the range of 100 to 500 nM.
As for `Cc1cc(Nc2nc(C(O)c3ccc(F)cc3)nc3cscc23)n[nH]1` (racemic) [Example 32, (R,S)-(4-fluorophenyl)(4-(5-methyl-1H-pyrazol-3-ylamino)thieno[3,4-d]pyrimidin-2-yl)methanol], in experiment [1], the “S-Score: S(10) at 10 μM” value is recorded as “B (0.3 < B ≦ 0.4)”. The Kd in experiment [2] was not above 10 nM; in experiment [4] it was not above 10 nM; in experiment [5], not above 1 nM. Further, the IC50 in experiment [3] is not above 100 nM.
`Cc1csc2c(Nc3cc[nH]n3)nc(C(O)c3ccc(F)cc3)nc12` (centres unmarked) [Example 25, (4-(1H-Pyrazol-3-ylamino)-7-methylthieno[3,2-d]pyrimidin-2-yl)(4-fluorophenyl)methanol]: the Kd is 10 to 100 nM in experiment [2], not above 10 nM in experiment [4] and 1 to 10 nM in experiment [5]. Also, in experiment [3], the IC50 lay in the range of 100 to 500 nM.
Consider `Cc1cc2c(Nc3cn(C)cn3)nc(C(O)c3ccc(F)cc3)nc2s1` (centres unmarked) [Example 34, (4-fluorophenyl)(6-methyl-4-(1-methyl-1H-imidazol-4-ylamino)thieno[2,3-d]pyrimidin-2-yl)methanol], for which the “S-Score: S(10) at 10 μM” value in experiment [1] is on record as “A (A ≦ 0.3)”. The results for the Kd in experiment [2] and in experiment [5] were more than 100 nM and not above 1 nM, respectively. Also, the IC50 in experiment [3] fell in the range of 100 to 500 nM.
